What was measured:
[1] = biological target: β2 adrenergic receptor (Homo sapiens, UniProt P07550); assay: Whole-cell cAMP Flashplate assay in CHO cell lines heterologously expressing human β2 adrenergic receptor; format: cell-based; set-up: expressed in transfected cells; details: CHO-K1 cells expressing cloned human β2
Protocol: Cells were rinsed with PBS and detached in dPBS (Dulbecco's Phosphate Buffered Saline, without CaCl2 and MgCl2) containing 2 mM EDTA or Trypsin-EDTA solution (0.05% trypsin/0.53 mM EDTA). […] Test compounds (10 mM in DMSO) were diluted into PBS containing 0.1% BSA in Beckman Biomek-2000 and tested at 11 different concentrations ranging from 100 μM to 1 pM. […] Data were analyzed by nonlinear regression analysis with the GraphPad Prism Software package (GraphPad Software, Inc., San Diego, Calif.) with the sigmoidal equation.

[2] = biological target: T1, cM5 receptor (Pan troglodytes, UniProt Q5IS53); assay: Blockade of agonist-mediated calcium release via FLIPR assay (cM5); format: cell-based, chimpanzee; details: CHO cells stably expressing cM5
T1 construct: expressed in transfected cells
T1 sequence (Q5IS53 1-532): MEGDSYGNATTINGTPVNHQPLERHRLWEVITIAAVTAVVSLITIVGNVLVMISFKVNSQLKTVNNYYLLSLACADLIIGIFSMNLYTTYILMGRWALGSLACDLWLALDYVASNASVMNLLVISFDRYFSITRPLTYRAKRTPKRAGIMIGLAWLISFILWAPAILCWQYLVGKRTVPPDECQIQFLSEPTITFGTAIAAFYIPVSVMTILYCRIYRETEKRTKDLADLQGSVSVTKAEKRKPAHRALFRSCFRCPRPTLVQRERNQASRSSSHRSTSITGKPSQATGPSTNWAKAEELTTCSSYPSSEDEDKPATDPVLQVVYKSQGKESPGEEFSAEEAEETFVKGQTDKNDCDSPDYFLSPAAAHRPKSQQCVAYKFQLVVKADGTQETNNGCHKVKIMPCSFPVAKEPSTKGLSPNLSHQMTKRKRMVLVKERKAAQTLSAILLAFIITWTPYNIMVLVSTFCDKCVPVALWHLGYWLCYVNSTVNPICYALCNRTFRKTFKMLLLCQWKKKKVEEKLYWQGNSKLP
Excerpt: B. Blockade of Agonist-Mediated Calcium Release Via FLIPR Assays
Muscarinic receptor subtypes (M1, M3 and M5 receptors), which couple to Gq proteins, activate the phospholipase C (PLC) pathway upon agonist binding to the receptor. As a result, activated PLC hydrolyzes phosphatyl inositol diphosphate (PIP2) to diacylglycerol (DAG) and phosphatidyl-1,4,5-triphosphate (IP3), which in turn generates calcium release from intracellular stores, i.e., endoplasmic and sarcoplasmic reticulum. […] This fluorescence event is measured in real time by the FLIPR, which detects the change in fluorescence from a monolayer of cells cloned with human M1 and M3, and chimpanzee M5 receptors. Antagonist potency can be determined by the ability of antagonists to inhibit agonist-mediated increases in intracellular calcium. […]
To determine antagonist potency, the dose-dependent stimulation of intracellular Ca^2+ release for oxotremorine was first determined so that antagonist potency can later be measured against oxotremorine stimulation at an EC90 concentration. […]
The parameters used for the FLIPR were: exposure length of 0.4 seconds, laser strength of 0.5 watts, excitation wavelength of 488 nm, and emission wavelength of 550 nm. Baseline was determined by measuring the change in fluorescence for 10 seconds prior to addition of agonist. […]

Sequence of β2 adrenergic receptor (P07550 whole entry): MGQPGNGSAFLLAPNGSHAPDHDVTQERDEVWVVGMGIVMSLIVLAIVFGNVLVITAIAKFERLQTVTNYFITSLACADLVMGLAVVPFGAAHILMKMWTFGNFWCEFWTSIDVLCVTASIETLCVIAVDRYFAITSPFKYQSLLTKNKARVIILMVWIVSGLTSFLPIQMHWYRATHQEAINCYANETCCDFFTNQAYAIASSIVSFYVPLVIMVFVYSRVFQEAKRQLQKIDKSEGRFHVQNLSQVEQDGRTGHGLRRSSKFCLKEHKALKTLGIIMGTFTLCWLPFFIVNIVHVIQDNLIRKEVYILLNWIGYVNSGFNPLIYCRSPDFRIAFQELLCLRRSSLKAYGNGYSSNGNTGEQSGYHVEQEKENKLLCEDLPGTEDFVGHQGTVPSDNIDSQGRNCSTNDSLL

COc1cc(NC(=O)CCN2CCC(OC(=O)Nc3ccccc3-c3ccccc3)CC2)c(Cl)cc1CNC[C@H](O)c1ccc(O)c2[nH]c(=O)ccc12 [compound of formula I, biphenyl-2-ylcarbamic acid 1-[2-(2-chloro-4-{[(R)-2-hydroxy-2-(8-hydroxy-2-oxo-1,2-dihydroquinolin-5-yl)ethylamino]methyl}-5-methoxyphenylcarbamoyl)ethyl]piperidin-4-yl ester]
EC50 [1]: < 10 nM
Ki [2]: < 10 nM

Reference: US8101766B2, “Crystalline form of a biphenyl compound” (Theravance, Inc., priority 2004, dated 2012)
